Experimental data as given in BindingDB's records for doi:10.3109/14756366.2011.649269 (Università di Firenze, 2013).

Columns and labels:
Experiment in all cases: Carbonic Anhydrase I, II, IV and XII Assay
Settings in all cases: pH 7.5; 25 °C
Carbonic anhydrase 4 = Carbonic anhydrase 4 (Homo sapiens, UniProt P22748)
Method: (§1) An Applied Photophysics stopped-flow instrument has been used for assaying the CA catalysed CO2 hydration activity [Khalifah et al., J. Biol. Chem., 246:2561-2573]. Phenol red (at a concentration of 0.2 mM) has been used as indicator, working at the absorbance maximum of 557 nm, with 10-20 mM Hepes (pH 7.5) as buffer, and 20 mM Na2SO4 (for maintaining constant the ionic strength), following the initial rates of the CA-catalyzed CO2 hydration reaction for a period of 10-100 s. The CO2 concentrations ranged from 1.7 to 17 mM for the determination of the kinetic parameters and inhibition constants. For each inhibitor at least six traces of the initial 5-10% of the reaction have been used for determining the initial velocity. The uncatalyzed rates were determined in the same manner and subtracted from the total observed rates. Stock solutions of inhibitor (10 mM) were prepared in distilled-deionised water and dilutions up to 0.01 nM were done thereafter with distilled-deionised water. Inhibitor and enzyme solutions were preincubated together for 15 min at room temperature prior to assay, in order to allow for the formation of the E-I complex.

Carbonic anhydrase 12 = Carbonic anhydrase 12 (Homo sapiens, UniProt O43570)
Chain of Carbonic anhydrase 12 (O43570 whole entry): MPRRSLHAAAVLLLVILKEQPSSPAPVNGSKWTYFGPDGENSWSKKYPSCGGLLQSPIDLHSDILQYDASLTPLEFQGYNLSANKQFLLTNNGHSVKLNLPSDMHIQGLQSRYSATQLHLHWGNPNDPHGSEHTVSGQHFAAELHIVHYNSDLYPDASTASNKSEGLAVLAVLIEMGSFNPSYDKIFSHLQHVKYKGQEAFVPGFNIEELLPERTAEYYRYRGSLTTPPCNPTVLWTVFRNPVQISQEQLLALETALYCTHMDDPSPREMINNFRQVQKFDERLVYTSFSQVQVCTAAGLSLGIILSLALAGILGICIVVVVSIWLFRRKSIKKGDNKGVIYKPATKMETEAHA
Method: as §1

Carbonic anhydrase 2 = Carbonic anhydrase 2 (Homo sapiens, UniProt P00918)
Method: as §1

Carbonic anhydrase 1 = Carbonic anhydrase 1 (Homo sapiens, UniProt P00915)
Chain of Carbonic anhydrase 1 (P00915 whole entry): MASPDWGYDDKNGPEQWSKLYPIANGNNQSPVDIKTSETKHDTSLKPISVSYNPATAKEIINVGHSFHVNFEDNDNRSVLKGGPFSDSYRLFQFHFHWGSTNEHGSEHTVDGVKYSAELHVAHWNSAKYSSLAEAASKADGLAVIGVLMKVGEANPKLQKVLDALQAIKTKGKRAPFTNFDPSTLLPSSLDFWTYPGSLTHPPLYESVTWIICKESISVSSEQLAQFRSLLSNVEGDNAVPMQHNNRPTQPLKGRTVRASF
Method: as §1

Chain of Carbonic anhydrase 4 (P22748 whole entry): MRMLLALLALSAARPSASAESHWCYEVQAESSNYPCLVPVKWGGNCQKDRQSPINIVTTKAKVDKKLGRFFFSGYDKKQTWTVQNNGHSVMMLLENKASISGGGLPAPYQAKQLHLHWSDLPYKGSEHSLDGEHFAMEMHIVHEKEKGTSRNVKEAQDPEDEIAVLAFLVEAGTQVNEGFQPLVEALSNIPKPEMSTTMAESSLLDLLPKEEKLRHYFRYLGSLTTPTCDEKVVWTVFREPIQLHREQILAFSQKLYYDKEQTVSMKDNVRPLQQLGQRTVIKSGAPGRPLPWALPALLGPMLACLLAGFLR

IC50 (Carbonic anhydrase 4) [µM] | IC50 (Carbonic anhydrase 12) [µM] | IC50 (Carbonic anhydrase 2) [µM] | IC50 (Carbonic anhydrase 1) [µM] | SMILES
0.611 | 0.645 | 0.216 | 0.231 | NS(=O)(=O)c1ccc(C(=O)NCCCN2CCOCC2)cc1 [4-Sulfamoyl-N-(3-morpholinopropyl)benzamide (I-1)]
0.499 | 0.517 | 0.0658 | 0.0577 | NS(=O)(=O)c1ccc(S(=O)(=O)NCCCN2CCOCC2)cc1 [N-(3-morpholinopropyl)benzene-1,4-disulfonamide (I-2)]
0.508 | 0.737 | 0.0811 | 0.0598 | CCN(CC)CCOc1ccc(CNS(=O)(=O)c2ccc(S(N)(=O)=O)cc2)cc1 [N-(4-diethylaminoethoxybenzyl)benzene-1,4-bis-sulfonamide (I-3)]
